# Test results from ChEMBL document CHEMBL3885881, “DrugMatrix”.
# Species: Rattus norvegicus
# Test: DrugMatrix - Regimen: Daily Repeat
# Type: toxicity, organism-based, Sprague-Dawley
# Set-up: regimen Daily Repeat, gender Male, age 6-8 weeks
# Details: in vivo, po, route oral GAVAGE, vehicle .5 % CMC; for ABSOLUTE BASOPHIL / ABSOLUTE EOSINOPHIL / ABSOLUTE LYMPHOCYTE / ABSOLUTE MONOCYTE / ABSOLUTE SEGMENTED NEUTROPHIL / BASOPHIL / EOSINOPHIL / ERYTHROCYTE COUNT / HEMATOCRIT / HEMOGLOBIN / LEUKOCYTE COUNT / LYMPHOCYTE / MEAN CORPUSCULAR HEMOGLOBIN / MEAN CORPUSCULAR HEMOGLOBIN CONCENTRATION / MEAN CORPUSCULAR VOLUME / MONOCYTE / NEUTROPHIL / NUCLEATED RED BLOOD CELLS / PLATELET COUNT: tissue Blood; for ALANINE AMINOTRANSFERASE / ALBUMIN / ALKALINE PHOSPHATASE / ASPARTATE AMINOTRANSFERASE / BLOOD UREA NITROGEN / CARBON DIOXIDE / CHLORIDE / CHOLESTEROL / CREATINE PHOSPHOKINASE / CREATININE / GLUCOSE / LACTATE DEHYDROGENASE / LIPASE / PHOSPHORUS / POTASSIUM / SODIUM / TOTAL BILIRUBIN / TOTAL PROTEIN / URIC ACID: tissue Plasma
# [1] = 50 mg/kg, 72 h, dose level Low, time 3 day
# [2] = 50 mg/kg, 120 h, dose level Low, time 5 day
# [3] = 1200 mg/kg, 72 h, dose level High, time 3 day
# [4] = 1200 mg/kg, 120 h, dose level High, time 5 day
smiles,measurement,setting,value
CC[C@H](C)C(=O)O[C@H]1CCC=C2C=C[C@H](C)[C@H](CC[C@@H]3C[C@@H](O)CC(=O)O3)[C@H]21 [MEVASTATIN],ABSOLUTE BASOPHIL,[1],0 CELLS/uL
same,ABSOLUTE EOSINOPHIL,[1],41.33 CELLS/uL
same,ABSOLUTE LYMPHOCYTE,[1],11887.33 CELLS/uL
same,ABSOLUTE MONOCYTE,[1],84.33 CELLS/uL
same,ABSOLUTE SEGMENTED NEUTROPHIL,[1],587 CELLS/uL
same,BASOPHIL,[1],0%
same,EOSINOPHIL,[1],0.33%
same,ERYTHROCYTE COUNT,[1],5.78 x10E6/uL
same,HEMATOCRIT,[1],37.3%
same,HEMOGLOBIN,[1],14.77 G/DL
same,LEUKOCYTE COUNT,[1],12.6 x10E3/uL
same,LYMPHOCYTE,[1],94.33%
same,MEAN CORPUSCULAR HEMOGLOBIN,[1],25.53 pg
same,MEAN CORPUSCULAR HEMOGLOBIN CONCENTRATION,[1],39.6 G/DL
same,MEAN CORPUSCULAR VOLUME,[1],64.47 fL
same,MONOCYTE,[1],0.67%
same,NEUTROPHIL,[1],4.67%
same,NUCLEATED RED BLOOD CELLS,[1],1 /100WBC
same,PLATELET COUNT,[1],1148.33 x10E3/uL
same,ALANINE AMINOTRANSFERASE,[1],48.67 u/L
same,ALBUMIN,[1],4.43 G/DL
same,ALKALINE PHOSPHATASE,[1],400 u/L
same,ASPARTATE AMINOTRANSFERASE,[1],85.67 u/L
same,BLOOD UREA NITROGEN,[1],16 mg/dL
same,CARBON DIOXIDE,[1],25.33 mmol/L
same,CHLORIDE,[1],100.33 MEQ/L
same,CHOLESTEROL,[1],87 mg/dL
same,CREATINE PHOSPHOKINASE,[1],404 u/L
same,CREATININE,[1],0.2 mg/dL
same,GLUCOSE,[1],161 mg/dL
same,LACTATE DEHYDROGENASE,[1],232.67 u/L
same,LIPASE,[1],8.67 u/L
same,PHOSPHORUS,[1],14.2 mg/dL
same,POTASSIUM,[1],6.89 MEQ/L
same,SODIUM,[1],146.63 MEQ/L
same,TOTAL BILIRUBIN,[1],0.33 mg/dL
same,TOTAL PROTEIN,[1],6.2 G/DL
same,URIC ACID,[1],1.93 mg/dL
same,ABSOLUTE BASOPHIL,[2],0 CELLS/uL
same,ABSOLUTE EOSINOPHIL,[2],47 CELLS/uL
same,ABSOLUTE LYMPHOCYTE,[2],15631 CELLS/uL
same,ABSOLUTE MONOCYTE,[2],0 CELLS/uL
same,ABSOLUTE SEGMENTED NEUTROPHIL,[2],1122 CELLS/uL
same,BASOPHIL,[2],0%
same,EOSINOPHIL,[2],0.33%
same,ERYTHROCYTE COUNT,[2],5.52 x10E6/uL
same,HEMATOCRIT,[2],35.63%
same,HEMOGLOBIN,[2],13.8 G/DL
same,LEUKOCYTE COUNT,[2],16.8 x10E3/uL
same,LYMPHOCYTE,[2],93%
same,MEAN CORPUSCULAR HEMOGLOBIN,[2],25.03 pg
same,MEAN CORPUSCULAR HEMOGLOBIN CONCENTRATION,[2],38.77 G/DL
same,MEAN CORPUSCULAR VOLUME,[2],64.6 fL
same,MONOCYTE,[2],0%
same,NEUTROPHIL,[2],6.67%
same,NUCLEATED RED BLOOD CELLS,[2],1 /100WBC
same,PLATELET COUNT,[2],1219.33 x10E3/uL
same,ALANINE AMINOTRANSFERASE,[2],52.67 u/L
same,ALBUMIN,[2],4.5 G/DL
same,ALKALINE PHOSPHATASE,[2],335.67 u/L
same,ASPARTATE AMINOTRANSFERASE,[2],79.67 u/L
same,BLOOD UREA NITROGEN,[2],15.67 mg/dL
same,CARBON DIOXIDE,[2],25.67 mmol/L
same,CHLORIDE,[2],103 MEQ/L
same,CHOLESTEROL,[2],67.33 mg/dL
same,CREATINE PHOSPHOKINASE,[2],212.33 u/L
same,CREATININE,[2],0.19 mg/dL
same,GLUCOSE,[2],153.33 mg/dL
same,LACTATE DEHYDROGENASE,[2],162 u/L
same,LIPASE,[2],9 u/L
same,PHOSPHORUS,[2],12.43 mg/dL
same,POTASSIUM,[2],6.8 MEQ/L
same,SODIUM,[2],146.23 MEQ/L
same,TOTAL BILIRUBIN,[2],0.23 mg/dL
same,TOTAL PROTEIN,[2],6.3 G/DL
same,URIC ACID,[2],1.63 mg/dL
same,ABSOLUTE BASOPHIL,[3],0 CELLS/uL
same,ABSOLUTE EOSINOPHIL,[3],56 CELLS/uL
same,ABSOLUTE LYMPHOCYTE,[3],15055 CELLS/uL
same,ABSOLUTE MONOCYTE,[3],329 CELLS/uL
same,ABSOLUTE SEGMENTED NEUTROPHIL,[3],1226.67 CELLS/uL
same,BASOPHIL,[3],0%
same,EOSINOPHIL,[3],0.33%
same,ERYTHROCYTE COUNT,[3],5.72 x10E6/uL
same,HEMATOCRIT,[3],38.57%
same,HEMOGLOBIN,[3],15.2 G/DL
same,LEUKOCYTE COUNT,[3],16.67 x10E3/uL
same,LYMPHOCYTE,[3],90.33%
same,MEAN CORPUSCULAR HEMOGLOBIN,[3],26.6 pg
same,MEAN CORPUSCULAR HEMOGLOBIN CONCENTRATION,[3],39.43 G/DL
same,MEAN CORPUSCULAR VOLUME,[3],67.5 fL
same,MONOCYTE,[3],2%
same,NEUTROPHIL,[3],7.33%
same,NUCLEATED RED BLOOD CELLS,[3],0.67 /100WBC
same,PLATELET COUNT,[3],1303 x10E3/uL
same,ALANINE AMINOTRANSFERASE,[3],47.67 u/L
same,ALBUMIN,[3],4.63 G/DL
same,ALKALINE PHOSPHATASE,[3],402.33 u/L
same,ASPARTATE AMINOTRANSFERASE,[3],96.67 u/L
same,BLOOD UREA NITROGEN,[3],20 mg/dL
same,CARBON DIOXIDE,[3],29.33 mmol/L
same,CHLORIDE,[3],102.67 MEQ/L
same,CHOLESTEROL,[3],68.33 mg/dL
same,CREATINE PHOSPHOKINASE,[3],235 u/L
same,CREATININE,[3],0.16 mg/dL
same,GLUCOSE,[3],180 mg/dL
same,LACTATE DEHYDROGENASE,[3],194 u/L
same,LIPASE,[3],9 u/L
same,PHOSPHORUS,[3],14.33 mg/dL
same,POTASSIUM,[3],7.63 MEQ/L
same,SODIUM,[3],146.93 MEQ/L
same,TOTAL BILIRUBIN,[3],0.13 mg/dL
same,TOTAL PROTEIN,[3],6.37 G/DL
same,URIC ACID,[3],2.77 mg/dL
same,ABSOLUTE BASOPHIL,[4],0 CELLS/uL
same,ABSOLUTE EOSINOPHIL,[4],0 CELLS/uL
same,ABSOLUTE LYMPHOCYTE,[4],14826.67 CELLS/uL
same,ABSOLUTE MONOCYTE,[4],346.67 CELLS/uL
same,ABSOLUTE SEGMENTED NEUTROPHIL,[4],1426.67 CELLS/uL
same,BASOPHIL,[4],0%
same,EOSINOPHIL,[4],0%
same,ERYTHROCYTE COUNT,[4],5.39 x10E6/uL
same,HEMATOCRIT,[4],33.63%
same,HEMOGLOBIN,[4],13.5 G/DL
same,LEUKOCYTE COUNT,[4],16.6 x10E3/uL
same,LYMPHOCYTE,[4],89.67%
same,MEAN CORPUSCULAR HEMOGLOBIN,[4],25.1 pg
same,MEAN CORPUSCULAR HEMOGLOBIN CONCENTRATION,[4],40.2 G/DL
same,MEAN CORPUSCULAR VOLUME,[4],62.43 fL
same,MONOCYTE,[4],2%
same,NEUTROPHIL,[4],8.33%
same,NUCLEATED RED BLOOD CELLS,[4],0 /100WBC
same,PLATELET COUNT,[4],1567.67 x10E3/uL
same,ALANINE AMINOTRANSFERASE,[4],54.33 u/L
same,ALBUMIN,[4],4.5 G/DL
same,ALKALINE PHOSPHATASE,[4],319 u/L
same,ASPARTATE AMINOTRANSFERASE,[4],97 u/L
same,BLOOD UREA NITROGEN,[4],19.33 mg/dL
same,CARBON DIOXIDE,[4],33 mmol/L
same,CHLORIDE,[4],100.33 MEQ/L
same,CHOLESTEROL,[4],65.33 mg/dL
same,CREATINE PHOSPHOKINASE,[4],319.67 u/L
same,CREATININE,[4],0.19 mg/dL
same,GLUCOSE,[4],136.67 mg/dL
same,LACTATE DEHYDROGENASE,[4],464 u/L
same,LIPASE,[4],8.67 u/L
same,PHOSPHORUS,[4],12.33 mg/dL
same,POTASSIUM,[4],6.95 MEQ/L
same,SODIUM,[4],143.97 MEQ/L
same,TOTAL BILIRUBIN,[4],0.2 mg/dL
same,TOTAL PROTEIN,[4],6.1 G/DL
same,URIC ACID,[4],1.8 mg/dL
